Data set [1] relates to M. tuberculosis H37Rv expressing the green fluorescent protein (H37Rv-GFP). Kind of data set: microbe, parasite or virus in culture. The class given is cell-based. Conditions: Mycobacterium tuberculosis, H37RV, 120 h; read-out: QUM (MIC50).
Data set [2] relates to Raw 264.7 cells infected with H37Rv-GFP. The data set can be described thus: microbe, parasite or virus in culture. The format is cell-based, M. tuberculosis. The following applies: for MIC50: Mycobacterium tuberculosis, H37RV, 120 h, read-out: QIM (MIC50).

Values after ≈ are worked out from the molar mass of the structure shown.

Broadly, the melting point is the temperature of the solid-liquid transition. `COc1ccc(CNC(=O)c2cc3nc(N4CCCCC4)sc3s2)cc1` [Compound 7] had a melting point of 179 °C. Also, the MIC50 in data set [1] is more than 20 µM. Also, in data set [2], the MIC50 is more than 20 µM.
Turning to `Cc1nc2cc(NC(=O)c3cc4sc(N5CCC(O)CC5)nc4s3)ccc2o1` [Compound 122], the melting point was determined as 238.5 °C. Further, the MIC50 in data set [1] is less than 1 µM. For the same molecule, the MIC50 in data set [2] is less than 1 µM.
The molecule `COC(=O)c1ccc(CCNC(=O)c2cc3sc(N4CCCCC4)nc3s2)cc1` [Compound 43] came in with a melting point of 212.9 °C. In addition, the MIC50 in data set [1] fell in the range of 1 to 20 µM (≈ 0.43 to 8.59 µg/mL). The MIC50 in data set [2] was less than 1 µM.
Molecule `COc1ccc(NC(=O)c2cc3sc(N4CCC(F)(F)CC4)nc3s2)cc1` [Compound 72] registered a melting point of 263.5 °C. Moreover, the MIC50 in data set [1] fell in the range of 1 to 20 µM (≈ 0.409 to 8.19 µg/mL). For the same molecule, in data set [2], the MIC50 is less than 1 µM.
Molecule `O=C(Nc1ccc(Cl)cc1)c1cc2sc(N3CCCCC3)nc2s1` [Compound 45] had a melting point of 275.2 °C. Besides, the MIC50 in data set [1] was in the range of 1 to 20 µM (≈ 0.378 to 7.56 µg/mL). In addition, in data set [2], the MIC50 was less than 1 µM.
Molecule `O=C(Nc1ccc(F)cc1)c1cc2sc(N3CCC(CO)CC3)nc2s1` [Compound 142] gave a melting point of 246.3 °C. Further, the MIC50 in data set [1] is less than 1 µM. The MIC50 in data set [2] is less than 1 µM.
As to `Cn1cc(F)c(-c2ccc(NC(=O)c3cc4sc(N5CCOCC5)nc4s3)cc2)n1` [Compound 162], the melting point turned out to be 280.5 °C. Also, the MIC50 in data set [1] was 1 to 20 µM (≈ 0.444 to 8.87 µg/mL). The MIC50 in data set [2] was less than 1 µM.
The like results for `Cc1ccc(-c2ccc(NC(=O)c3cc4sc(N5CCOCC5)nc4s3)cc2)cn1` [Compound 161] were, in that order, 292 °C, more than 20 µM and less than 1 µM.
In turn, `O=C(Nc1cccc(Br)c1)c1cc2sc(N3CCOCC3)nc2s1` [Compound 118] came in with a melting point of 199 °C. The MIC50 in data set [1] was more than 20 µM. Further, the MIC50 in data set [2] is less than 1 µM.
`O=C(Nc1ccc2[nH]ncc2c1)c1cc2sc(N3CCOCC3)nc2s1` [Compound 89] had a melting point of 329.8 °C. Further, the MIC50 in data set [1] is more than 20 µM. In data set [2], the MIC50 was more than 20 µM.
Molecule `O=C(Nc1ccc(OC(F)(F)F)cc1)c1cc2sc(N3CCCCC3)nc2s1` [Compound 58] had a melting point of 239 °C. Further, in data set [1], the MIC50 fell in the range of 1 to 20 µM (≈ 0.427 to 8.55 µg/mL). Also, the MIC50 in data set [2] is less than 1 µM.
In turn, `Cc1nc2c(NC(=O)c3cc4sc(N5CCOCC5)nc4s3)cccc2o1` [Compound 102] registered a melting point of 209.3 °C. Also, the MIC50 in data set [1] is more than 20 µM. Also, the MIC50 in data set [2] was more than 20 µM.
In the case of `O=C(Nc1ccc(F)cc1)c1cc2sc(N3CCOCC3)nc2s1` [Compound 99], the melting point was 240 °C. Also, the MIC50 in data set [1] is 1 to 20 µM (≈ 0.363 to 7.27 µg/mL). Besides, the MIC50 in data set [2] was less than 1 µM.
The like results for `Cn1ccc(-c2ccc(NC(=O)c3cc4sc(N5CCOCC5)nc4s3)cc2)n1` [Compound 145] were, in that order, 314 °C, 1 to 20 µM (≈ 0.426 to 8.51 µg/mL) and less than 1 µM.
`COc1ccc(NC(=O)c2cc3sc(N4CCN5CCCC5C4)nc3s2)cc1` (stereo not shown) [Compound 100]: the melting point came out at 195 °C. Also, the MIC50 in data set [1] lay in the range of 1 to 20 µM (≈ 0.415 to 8.29 µg/mL). In data set [2], the MIC50 was less than 1 µM.
`CCc1ccc(NC(=O)c2cc3sc(N4CCCCC4)nc3s2)cc1` [Compound 38] displayed a melting point of 198 °C. For the same molecule, the MIC50 in data set [1] lay in the range of 1 to 20 µM (≈ 0.372 to 7.43 µg/mL). Also, the MIC50 in data set [2] is less than 1 µM.
Molecule `Cc1nc2ccc(NC(=O)c3cc4nc(N5CCCCC5)sc4s3)cc2o1` [Compound 34] showed a melting point of 213 °C. Also, the MIC50 in data set [1] was more than 20 µM.
Take `COc1ccc(NC(=O)c2cc3scnc3s2)cc1` [Compound 75]: the melting point was determined as 212 °C. Also, in data set [1], the MIC50 was 1 to 20 µM (≈ 0.29 to 5.81 µg/mL). For the same molecule, the MIC50 in data set [2] is more than 20 µM.
For `COc1ccc(NC(=O)c2cc3sc(N4CCC(C(=O)N5CCOCC5)CC4)nc3s2)cc1` [Compound 125], in that order: 268 °C, less than 1 µM and less than 1 µM.
`O=C(Nc1ccc(N2CCC(c3ccc(Cl)cc3)CC2)cc1)c1cc2sc(N3CCOCC3)nc2s1` [Compound 190] came in with a melting point of 281.1 °C. Besides, the MIC50 in data set [1] is more than 20 µM. In data set [2], the MIC50 was more than 20 µM.
With `Cc1nc2cc(NC(=O)c3cc4sc(N5CCOCC5C(=O)N(C)C)nc4s3)ccc2o1` (stereo not shown) [Compound 175], the melting point was 288.6 °C. Moreover, the MIC50 in data set [1] was more than 20 µM. The MIC50 in data set [2] was more than 20 µM.
As for `O=C(Nc1ccc(Oc2ccc(Cl)cc2)cc1)c1cc2sc(N3CCOCC3)nc2s1` [Compound 146], the melting point worked out at 225 °C. Besides, the MIC50 in data set [1] lay within 1 to 20 µM (≈ 0.472 to 9.44 µg/mL). In data set [2], the MIC50 is less than 1 µM.
For `Cc1nc2cc(NC(=O)c3cc4sc(N(C)CCO)nc4s3)ccc2o1` [Compound 201], in that order: 226.3 °C, less than 1 µM and 1 to 20 µM (≈ 0.388 to 7.77 µg/mL).
`Cn1cnc2cc(NC(=O)c3cc4sc(N5CCOCC5)nc4s3)ccc21` [Compound 116] gave a melting point of 291 °C. Besides, the MIC50 in data set [1] is more than 20 µM. In addition, the MIC50 in data set [2] fell in the range of 1 to 20 µM (≈ 0.4 to 7.99 µg/mL).
Consider `Cc1cnc(-c2ccc(NC(=O)c3cc4sc(N5CCOCC5)nc4s3)cc2)o1` [Compound 154], for which the melting point was determined as 287.3 °C. In data set [1], the MIC50 is less than 1 µM. Besides, the MIC50 in data set [2] is less than 1 µM.
With `COc1ccc(NC(=O)c2cc3sc(N4CCC4)nc3s2)cc1` [Compound 80], the melting point was determined as 256 °C. Further, in data set [1], the MIC50 was in the range of 1 to 20 µM (≈ 0.345 to 6.91 µg/mL). Besides, the MIC50 in data set [2] is less than 1 µM.
`O=C(Nc1ccc(O)cc1)c1cc2sc(N3CCCCC3)nc2s1` [Compound 97] gave a melting point of 246 °C. Moreover, the MIC50 in data set [1] was 1 to 20 µM (≈ 0.359 to 7.19 µg/mL). The MIC50 in data set [2] fell in the range of 1 to 20 µM (≈ 0.359 to 7.19 µg/mL).
`O=C(Nc1ccc2ncoc2c1)c1cc2sc(N3CCOCC3)nc2s1` [Compound 101] displayed a melting point of 281.8 °C. For the same molecule, the MIC50 in data set [1] was 1 to 20 µM (≈ 0.386 to 7.73 µg/mL). Also, the MIC50 in data set [2] was less than 1 µM.
Consider `COC(=O)C1CCC(NC(=O)c2cc3nc(N4CCCCC4)sc3s2)CC1` (stereo not shown) [Compound 30], for which the melting point was 191 °C. Further, the MIC50 in data set [1] is more than 20 µM.
For the molecule `CC(C)(C)CC(=O)NC1CCN(c2nc3sc(C(=O)Nc4ccc(F)cc4)cc3s2)CC1` [Compound 304], the MIC50 in data set [1] was more than 20 µM; in data set [2], less than 1 µM.
The like results for `Cc1nc2cc(NC(=O)c3cc4sc(N(C)CC(O)C(F)(F)F)nc4s3)ccc2o1` (stereo not shown) [Compound 261] were, in that order, less than 1 µM and less than 1 µM.
For `COc1ccc(CN2CCN(c3nc4sc(C(=O)Nc5ccc(OC)cc5)cc4s3)CC2)cc1` [Compound 91], the MIC50 in data set [1] is more than 20 µM; in data set [2], less than 1 µM.
Regarding `O=C(Nc1ccc(F)cc1)c1cc2sc(OC3CCCCC3)nc2s1` [Compound 334], the MIC50 in data set [1] is 1 to 20 µM (≈ 0.376 to 7.53 µg/mL); in data set [2], less than 1 µM.
With `CC(C)(C)OC(=O)N1CCN(c2nc3sc(C(=O)Nc4ccc(-c5ccc(F)cn5)cc4)cc3s2)CC1` [Compound 306], the MIC50 in data set [1] was more than 20 µM; in data set [2] it was less than 1 µM.
With `O=C(Nc1ccc(C(F)(F)F)cc1)c1cc2nc(N3CCCCC3)sc2s1` [Compound 33], the melting point was found to be 228.6 °C. Besides, the MIC50 in data set [1] was more than 20 µM.
With `CN(C)C(=O)C1CCN(c2nc3sc(C(=O)Nc4ccc(-c5ccc(F)cc5)cn4)cc3s2)CC1` [Compound 246], the values for the MIC50 in data set [1] and in data set [2] were 1 to 20 µM (≈ 0.51 to 10.2 µg/mL) and less than 1 µM, respectively.
As to `Cc1nc2cc(NC(=O)c3cc4sc(N5CCC(NC(=O)OC(C)(C)C)CC5)nc4s3)ccc2o1` [Compound 233], the figures for the MIC50 in data set [1] and in data set [2] were 1 to 20 µM (≈ 0.514 to 10.3 µg/mL) and less than 1 µM, respectively.
With `COCCN(C)c1nc2sc(C(=O)Nc3ccc(-c4ccc(F)cc4)cn3)cc2s1` [Compound 273], the values for the MIC50 in data set [1] and in data set [2] were 1 to 20 µM (≈ 0.443 to 8.85 µg/mL) and less than 1 µM, respectively.
The like results for `COc1ccc(CNc2nc3sc(C(=O)Nc4ccc5oc(C)nc5c4)cc3s2)cc1` [Compound 239] were, in that order, 1 to 20 µM (≈ 0.451 to 9.01 µg/mL) and less than 1 µM.
As to `Cc1nc2cc(NC(=O)c3cc4sc(N5CCC(C(=O)c6ccc(Cl)cc6)CC5)nc4s3)ccc2o1` [Compound 205], the MIC50 in data set [1] and in data set [2] was more than 20 µM each time.
As to `CN(CC(O)C(F)(F)F)c1nc2sc(C(=O)Nc3ccc(-c4ccc(F)nc4)cc3)cc2s1` (stereo not shown) [Compound 339], the MIC50 in data set [1] and in data set [2] was less than 1 µM in each case.
`O=C(Nc1ccc(F)cn1)c1cc2sc(NCCN3CCOCC3)nc2s1` [Compound 335]: the MIC50 in data set [1] and in data set [2] was 1 to 20 µM (≈ 0.407 to 8.15 µg/mL) in each case.
For `COC(=O)c1ccc(N(C)C(=O)c2cc3nc(N4CCCCC4)sc3s2)cc1` [Compound 31], the melting point worked out at 178.5 °C. In addition, in data set [1], the MIC50 was more than 20 µM.
With `COc1ccc(Cn2cc(F)c(-c3ccc(NC(=O)c4cc5sc(N6CCOCC6)nc5s4)cc3)n2)cc1` [Compound 158], the MIC50 is 1 to 20 µM (≈ 0.55 to 11 µg/mL) in data set [1] and less than 1 µM in data set [2].
Take `CN(CCO)c1nc2sc(C(=O)Nc3ccc(-c4ccn(C)n4)cc3)cc2s1` [Compound 275]: the MIC50 in data set [1] is 1 to 20 µM (≈ 0.414 to 8.27 µg/mL); in data set [2], less than 1 µM.
Turning to `Cc1nc2cc(NC(=O)c3cc4sc(N5CCC(N)CC5)nc4s3)ccc2o1` [Compound 234], the MIC50 is 1 to 20 µM (≈ 0.414 to 8.27 µg/mL) in data set [1] and less than 1 µM in data set [2].
For `CN(C)C(=O)C1CCN(c2nc3sc(C(=O)Nc4ccc(-c5nn(C)cc5F)cc4)cc3s2)CC1` [Compound 228], the MIC50 in data set [1] and in data set [2] was less than 1 µM each time.
For the molecule `CN(C)C(=O)CC1CCN(c2nc3sc(C(=O)Nc4ccc(F)cc4)cc3s2)CC1` [Compound 331], the MIC50 in data set [1] and in data set [2] was less than 1 µM throughout.
For the molecule `O=C(O)c1ccc(NC(=O)c2cc3sc(N4CCCCC4)nc3s2)cc1` [Compound 51], the MIC50 in data set [1] and in data set [2] was 1 to 20 µM (≈ 0.387 to 7.75 µg/mL) each time.
For `CS(=O)(=O)O.CS(=O)(=O)O.O=C(Nc1ccc(-c2ccc(F)cn2)cc1)c1cc2sc(NCCN3CCOCC3)nc2s1` [Compound 360], in data set [1], the MIC50 was less than 1 µM. The “QIM (MIC50, uM)” value in data set [2] is recorded as “+++ (+++ indicates <1 uM)”.

For the origin of these results see patent US11279714B2, “Anti-infective compounds” (priority 2014, dated 2022).
